Paper PMC6154534, “New Benzimidazole-1,2,4-Triazole Hybrid Compounds: Synthesis, Anticandidal Activity and Cytotoxicity Evaluation” (Molecules : A Journal of Synthetic Chemistry and Natural …, 2017)
Converted amounts (≈) assume the structure as drawn.

Columns and labels:
[1] = tested on: NIH/3T3 mouse embryonic fibroblast cell line (ATCC CRL1658); test: MTT cytotoxicity assay; format: cell-based; conditions: NIH3T3, tested 800 to 0.78 µg/mL, read-out: IC50 on NIH/3T3 mouse embryonic fibroblast cell lines
Source text: Toxicity is a key cause of failure at all steps of the new drug development process. The most part of safety-related problems occur at preclinical phases to predict preclinical safety liabilities earlier in the new drug development process. This approach allows to design and/or selection of better drug candidates that have more potentials to be marketed drugs. […] Cytotoxicities of selected compounds (5m, 5o, 5r, 5w, 5y, 5ab, and 5ad), displaying strong anticandidal activity and good predicted pharmacokinetics, were determined against NIH/3T3 mouse embryonic fibroblast cell lines (ATCC CRL1658).
Cytotoxicity was tested using the NIH/3T3 mouse embryonic fibroblast cell line (ATCC® CRL-1658™, London, UK). NIH/3T3 cells were incubated according to the supplier’s recommendations and they were seeded at 1 × 10^4 cells into each well of 96-well plates. MTT assay was performed as previously described. The compounds were tested in a concentration range of 800 µg/mL and 0.78 µg/mL concentrations. Percent inhibition was calculated for each concentration according to the formula below, and IC50 values were determined by plotting a concentration–response curve of inhibition percent versus compound concentrations tested.

Candida species = test: Anticandidal broth microdilution, results summarised over all strains; format: cell-based; conditions: summary over all four Candida strains; for MIC50: Candida, read-out: MIC50 against Candida species
Experimental: (§1) Synthesized compounds (5a-5ad) were evaluated for anticandidal activity against C. albicans (ATCC 24433), C. krusei (ATCC 6258), C. parapsilosis (ATCC 22019) and C. [NT] 90030). MIC50 values were evaluated via fluorometric measurements, using resazurin solution [56, 57]. […] [NT] 90030). MIC readings were carried out twice for each chemical agent. The yeasts were maintained in RPMI after overnight incubation at 37 °C. The inocula of test microorganisms adjusted to match the turbidity of a MacFarland 0.5 standard tube as determined with a spectrophotometer and the final inoculum size was 0.5-2.5 × 10^5 cfu/mL for antifungal assay. Testing was carried out in RPMI at pH = 7 and the two-fold serial dilutions technique was applied. The last well on the microplates containing only inoculated broth was kept as controls and the last well with no growth of microorganism was recorded to represent the MIC50 expressed in μg/mL. For the antifungal assays, the compounds were dissolved in DMSO. […] The completed plates were incubated for 24 h. At the end of the incubation, resazurin (20 μg/mL) was added into each well to control whether the growth in wells. Then, plates were allowed to incubate for 2 h. MIC50 values were determined using a microplate reader at […].

C. glabrata (ATCC 90030) = test: Anticandidal broth microdilution (EUCAST EDef 7.1), resazurin fluorometric readout; format: cell-based; conditions: Nakaseomyces glabratus, ATCC90030; ATCC 90030, RPMI pH 7, 24 h incubation
Experimental: as §1

C. albicans (ATCC 24433) = test: as above; format: cell-based; conditions: Candida albicans, ATCC24433; ATCC 24433, RPMI pH 7, 24 h incubation
Experimental: as §1

[2] = tested on: C. parapsilosis (ATCC 22019); test: as above; format: cell-based; conditions: Lodderomyces parapsilosis, ATCC22019; ATCC 22019, RPMI pH 7, 24 h incubation; read-out: MIC50 C. parapsilopsis
Experimental: as §1

C. krusei (ATCC 6258) = test: as above; format: cell-based; conditions: Pichia kudriavzevii, ATCC6258; ATCC 6258, RPMI pH 7, 24 h incubation
Experimental: as §1

SMILES	melting point	IC50 [1]	MIC50 (Candida species)	MIC50 (C. glabrata (ATCC 90030))	MIC50 (C. albicans (ATCC 24433))	MIC50 [2]	MIC50 (C. krusei (ATCC 6258))	anticandidal activity against Candida strains (in words) (Candida species)
CCn1c(SCC(=O)c2ccc(F)cc2)nnc1-c1ccc(-c2nc3ccc(F)cc3[nH]2)cc1 [Compound 5ab, 2-((4-Ethyl-5-(4-(6-fluoro-1H-benzimidazol-2-yl)phenyl)-4H-1,2,4-triazol-3-yl)thio)-1-(4-fluorophenyl)ethan-1-one]	251 °C	43.1 ± 2.88 µg/mL (≈ 90.7 µM)	0.78 to 1.56 µg/mL (≈ 1.64 to 3.28 µM)	1.56 µg/mL (≈ 3.28 µM)	0.78 µg/mL (≈ 1.64 µM)	0.78 µg/mL (≈ 1.64 µM)	1.56 µg/mL (≈ 3.28 µM)	–
Cn1c(SCC(=O)c2ccc(F)cc2)nnc1-c1ccc(-c2nc3ccc(Cl)cc3[nH]2)cc1 [Compound 5m, 2-((5-(4-(6-Chloro-1H-benzimidazol-2-yl)phenyl)-4-methyl-4H-1,2,4-triazol-3-yl)thio)-1-(4-fluorophenyl)ethan-1-one]	274.5 °C	17.4 ± 0.89 µg/mL (≈ 36.4 µM)	0.78 to 1.56 µg/mL (≈ 1.63 to 3.26 µM)	1.56 µg/mL (≈ 3.26 µM)	0.78 µg/mL (≈ 1.63 µM)	0.78 µg/mL (≈ 1.63 µM)	0.78 µg/mL (≈ 1.63 µM)	–
Cn1c(SCC(=O)c2ccc(Cl)cc2Cl)nnc1-c1ccc(-c2nc3ccc(Cl)cc3[nH]2)cc1 [Compound 5n, 2-((5-(4-(6-Chloro-1H-Benzimidazol-2-yl)phenyl)-4-methyl-4H-1,2,4-triazol-3-yl)thio)-1-(2,4-dichlorophenyl)ethan-1-one]	274.2 °C	–	1.56 to 3.12 µg/mL (≈ 2.95 to 5.9 µM)	3.12 µg/mL (≈ 5.9 µM)	1.56 µg/mL (≈ 2.95 µM)	3.12 µg/mL (≈ 5.9 µM)	1.56 µg/mL (≈ 2.95 µM)	–
Cn1c(SCC(=O)c2ccc(F)cc2F)nnc1-c1ccc(-c2nc3ccc(Cl)cc3[nH]2)cc1 [Compound 5o, 2-((5-(4-(6-Chloro-1H-benzimidazol-2-yl)phenyl)-4-methyl-4H-1,2,4-triazol-3-yl)thio)-1-(2,4-difluorophenyl)ethan-1-one]	264.9 °C	1.63 ± 0.02 µg/mL (≈ 3.29 µM)	0.78 to 1.56 µg/mL (≈ 1.57 to 3.15 µM)	1.56 µg/mL (≈ 3.15 µM)	0.78 µg/mL (≈ 1.57 µM)	0.78 µg/mL (≈ 1.57 µM)	1.56 µg/mL (≈ 3.15 µM)	–
CCn1c(SCC(=O)c2ccccc2)nnc1-c1ccc(-c2nc3ccc(Cl)cc3[nH]2)cc1 [Compound 5p, 2-((5-(4-(6-Chloro-1H-benzimidazol-2-yl)phenyl)-4-ethyl-4H-1,2,4-triazol-3-yl)thio)-1-phenylethan-1-one]	248.5 °C	–	–	12.5 µg/mL (≈ 26.4 µM)	12.5 µg/mL (≈ 26.4 µM)	25 µg/mL (≈ 52.7 µM)	50 µg/mL (≈ 105 µM)	did not show strong activity
CCn1c(SCC(=O)c2ccc(Cl)cc2)nnc1-c1ccc(-c2nc3ccc(Cl)cc3[nH]2)cc1 [Compound 5q, 2-((5-(4-(6-Chloro-1H-benzimidazol-2-yl)phenyl)-4-ethyl-4H-1,2,4-triazol-3-yl)thio)-1-(4-chlorophenyl)ethan-1-one]	252.2 °C	–	–	12.5 µg/mL (≈ 24.6 µM)	6.25 µg/mL (≈ 12.3 µM)	12.5 µg/mL (≈ 24.6 µM)	12.5 µg/mL (≈ 24.6 µM)	did not show strong activity
CCn1c(SCC(=O)c2ccc(F)cc2)nnc1-c1ccc(-c2nc3ccc(Cl)cc3[nH]2)cc1 [Compound 5r, 2-((5-(4-(6-Chloro-1H-benzimidazol-2-yl)phenyl)-4-ethyl-4H-1,2,4-triazol-3-yl)thio)-1-(4-fluorophenyl)ethan-1-one]	265.5 °C	13.9 ± 0.69 µg/mL (≈ 28.3 µM)	0.78 to 1.56 µg/mL (≈ 1.59 to 3.17 µM)	0.78 µg/mL (≈ 1.59 µM)	0.78 µg/mL (≈ 1.59 µM)	1.56 µg/mL (≈ 3.17 µM)	1.56 µg/mL (≈ 3.17 µM)	–
CCn1c(SCC(=O)c2ccc(Cl)cc2Cl)nnc1-c1ccc(-c2nc3ccc(Cl)cc3[nH]2)cc1 [Compound 5s, 2-((5-(4-(6-Chloro-1H-benzimidazol-2-yl)phenyl)-4-ethyl-4H-1,2,4-triazol-3-yl)thio)-1-(2,4-dichlorophenyl)ethan-1-one]	192 °C	–	1.56 to 3.12 µg/mL (≈ 2.87 to 5.75 µM)	3.12 µg/mL (≈ 5.75 µM)	1.56 µg/mL (≈ 2.87 µM)	1.56 µg/mL (≈ 2.87 µM)	3.12 µg/mL (≈ 5.75 µM)	–
CCn1c(SCC(=O)c2ccc(F)cc2F)nnc1-c1ccc(-c2nc3ccc(Cl)cc3[nH]2)cc1 [Compound 5t, 2-((5-(4-(6-Chloro-1H-benzimidazol-2-yl)phenyl)-4-ethyl-4H-1,2,4-triazol-3-yl)thio)-1-(2,4-difluorophenyl)ethan-1-one]	250.6 °C	–	0.78 to 1.56 µg/mL (≈ 1.53 to 3.06 µM)	1.56 µg/mL (≈ 3.06 µM)	0.78 µg/mL (≈ 1.53 µM)	0.78 µg/mL (≈ 1.53 µM)	0.78 µg/mL (≈ 1.53 µM)	–
Cn1c(SCC(=O)c2ccccc2)nnc1-c1ccc(-c2nc3ccc(F)cc3[nH]2)cc1 [Compound 5u, 2-((5-(4-(6-Fluoro-1H-benzimidazol-2-yl)phenyl)-4-methyl-4H-1,2,4-triazol-3-yl)thio)-1-phenylethan-1-one]	277.1 °C	–	–	25 µg/mL (≈ 56.4 µM)	12.5 µg/mL (≈ 28.2 µM)	50 µg/mL (≈ 113 µM)	50 µg/mL (≈ 113 µM)	did not show strong activity
Cn1c(SCC(=O)c2ccc(Cl)cc2)nnc1-c1ccc(-c2nc3ccc(F)cc3[nH]2)cc1 [Compound 5v, 1-(4-Chlorophenyl)-2-((5-(4-(6-fluoro-1H-benzimidazol-2-yl)phenyl)-4-methyl-4H-1,2,4-triazol-3-yl)thio)ethan-1-one]	252.9 °C	–	1.56 to 3.12 µg/mL (≈ 3.26 to 6.53 µM)	6.25 µg/mL (≈ 13.1 µM)	12.5 µg/mL (≈ 26.2 µM)	12.5 µg/mL (≈ 26.2 µM)	12.5 µg/mL (≈ 26.2 µM)	did not show strong activity
Cn1c(SCC(=O)c2ccc(F)cc2F)nnc1-c1ccc(-c2nc3ccc(F)cc3[nH]2)cc1 [Compound 5y, 1-(2,4-Difluorophenyl)-2-((5-(4-(6-fluoro-1H-benzimidazol-2-yl)phenyl)-4-methyl-4H-1,2,4-triazol-3-yl)thio)ethan-1-one]	263.2 °C	11.1 ± 0.57 µg/mL (≈ 23.2 µM)	0.78 to 1.56 µg/mL (≈ 1.63 to 3.25 µM)	1.56 µg/mL (≈ 3.25 µM)	0.78 µg/mL (≈ 1.63 µM)	1.56 µg/mL (≈ 3.25 µM)	0.78 µg/mL (≈ 1.63 µM)	–
